Measurements: patent US20240009179A1, “METHODS OF TREATING CYSTIC FIBROSIS USING WITH-NO-LYSINE (WNK) KINASE PATHWAY INHIBITORS” (UNIVERSITY OF IOWA RESEARCH FOUNDATION, priority 2022, published 2024)

Experiments:
[1] = system: primary cultures of non-CF epithelia; assay: pHASL measurement (SNARF-1-dextran) in primary non-CF airway epithelia; assay type: cell-based, human; details: WNK463 10 μM, 2 hours, 25 mM HCO3− and 5% CO2
Description: (§1) Cell culture. Primary cultures of differentiated airway epithelia were obtained without passage from multiple human donors as previously reported (37). Briefly, proximal bronchi were dissected, cut into small pieces, and enzymatically digested. Epithelial cells were isolated and seeded onto collagen-coated inserts (Costar, 3470; Falcon, 353180). Epithelia were differentiated at the air liquid interface for 3 weeks or more prior to assay. During the course of this study, new CF lung donors became scarce, partly due to more individuals taking highly-active CFTR modulators. To manage this situation, epithelial cells from previous CF donors cryopreserved at PO were thawed and differentiated. Whenever feasible, studies followed a paired design so that epithelia from the same donor were assayed under control and treatment conditions.
pHASL measurement. pHASL was measured using a fluorescent ratiometric pH indicator, SNARF-1, conjugated to 70 kD dextran (Thermo Fisher Scientific). SNARF-1-dextran was delivered as a powder to the apical side and allowed to distribute into ASL for 1 hour. […] SNARF-1 was excited at 514 nm, and emissions at 580 nm and 640 nm were recorded. The ratio of fluorescence intensities (580/640) was obtained to calculate pH values using calibration curves constructed from colorless standard pH solutions. […]

primary CF epithelia [2] = assay: ASL viscosity measurement (FRAP); assay type: cell-based, human; details: WNK463 10 μM, 2 hours
Protocol: ASL viscosity measurement. ASL viscosity was measured using the fluorescence recovery after photobleaching (FRAP) method as previously reported (12). Briefly, powdered FITC-dextran (70 kD, Sigma) was delivered to the apical side of airway epithelia, and allowed to equilibrate for 2 hours. Epithelia were moved to a humidified chamber on the Zeiss LSM 880 confocal microscope. The chamber maintained a temperature of 37° C. and an atmosphere of 5% CO2. After baseline imaging, a small region of interest was photobleached. Time series fluorescence recovery images were collected until maximal recovery was reached. For each epithelium, 4-5 curves from different locations were obtained and averaged. The time constant (T) was calculated from the fluorescence recovery curves using regression, and expressed as ASL value normalized to saline (τASL/τsaline).

primary CF epithelia [3] = assay: Ciliary beat frequency measurement; assay type: cell-based, human; details: WNK463 10 μM, 2 hours
Protocol: Ciliary beat frequency measurement. Phase contrast videos of ciliary motion were obtained using the Zeiss Axio Observer microscope at 50 frames per second at room temperature. A total of 256 frames (5.1 second videos) were obtained for each field. A minimum of five random fields per culture were selected. Whole field gaussian mean ciliary beat frequencies (CBF) were analyzed using the Sisson-Ammons video analysis software (SAVA; Ammons Engineering, Mt. Morris, MI) (41).

NKCC1 [4] = assay: Ussing chamber, bumetanide-sensitive ISC in non-CF epithelia; assay type: cell-based, human; details: WNK463 10 μM, 2 hours, amiloride, forskolin, then basolateral bumetanide
Protocol: (§2) Electrophysiologic studies. Airway epithelia were mounted in modified Ussing chambers (Physiologic Instruments) and bathed in symmetric Krebs buffer solution. The standard Krebs buffer contained (in mM): 118.9 NaCl, 25 NaHCO3, 2.4 K2HPO4, 0.6 KH2PO4, 1.2 MgCl2, 1.2 CaCl2), and 5 dextrose at 37° C., adjusted to pH 7.4 in the presence of 5% CO2. The HCO3^−-free solution contained (in mM): 135 NaCl, 2.4 K2HPO4, 0.6 KH2PO4, 1.2 MgCl2, 1.2 CaCl2), 5 HEPES, and 5 dextrose at 37° C., adjusted to pH 7.4 in nominally C02^−free environment. The Cl^−-free solution contained (in mM): 118.9 Na gluconate, 25 NaHCO3, 2.4 K2HPO4, 0.6 KH2PO4, 5 Ca gluconate, 1 Mg gluconate, 5 dextrose, at 37° C. and adjusted to pH 7.4 in the presence of 5% C02. Epithelia were voltage clamped, followed by recording of the short-circuit current (ISC) and transepithelial conductance (Gt). Exposure to either vehicle (DMSO) or WNK463 was continued during recording. The following agents were added apically (in μM): 100 amiloride, 20 uridine triphosphate (UTP), 100 4,4′-diisothiocyano-2,2′-stilbenedisulfonic acid (DIDS), 10 forskolin, and 10 CFTRinh-172. In some experiments, 100 μM bumetanide was also added to the serosal chambers.
(§3) Reducing basolateral Cl^−-entry increases CF pHASL. […] To estimate the contribution of NKCC1, we added basolateral bumetanide, and measured ΔISC. […]

CaCC = assay: Ussing chamber, response to apical DIDS in CF epithelia; assay type: cell-based, human; details: WNK463 10 μM, 2 hours, after amiloride and UTP
Protocol: as §2
CF epithelia lack functional CFTR channels, but express CaCC. […] Next, we added DIDS, a non-specific CaCC inhibitor, and recorded the change in ISC and Gt.

CFTR = assay: Ussing chamber, response to CFTRinh-172 in non-CF epithelia; assay type: cell-based, human; details: WNK463 10 μM
Protocol: as §2
WNK463 reduces electrogenic Cl^− secretion. CFTR is the main route for anion exit across the apical membrane of airway epithelia. Whether WNK inhibition alters CFTR activity in airway epithelia is not well-established. To test, we exposed non-CF epithelia to WNK463 for 2 hours, and assayed in Ussing chambers containing symmetric Krebs solution (118 mM Cl^− and 25 mM HCO3^−, gassed with 5% CO2). After clamping transepithelial voltage, we recorded ISC and Gt, and elicited responses to selective channel inhibitors or activators (FIGS. 5A and 5B). We added amiloride followed by DIDS to abolish ENaC-mediated Na^+ absorption and Ca^2+-activated Cl^− channel (CaCC)-mediated anion secretion, respectively. Next, we added forskolin to increase cellular cAMP and thereby phosphorylate and activate CFTR channels. We concluded with CFTRinh-172, an inhibitor of CFTR. We assessed the response to CFTRinh-172 and used it to estimate CFTR channel activity. WNK463 reduced ΔISC-CFTR by ˜ 50% (FIG. 5C).

[5] = system: primary cultures of differentiated CF airway epithelia; assay: pHASL measurement (SNARF-1-dextran) in primary CF airway epithelia; assay type: cell-based, human
Description: as §1
(§4) pHASL measurement. pHASL was measured using a fluorescent ratiometric pH indicator, SNARF-1, conjugated to 70 kD dextran (Thermo Fisher Scientific). SNARF-1-dextran was delivered as a powder to the apical side and allowed to distribute into ASL for 1 hour. Imaging was performed on a laser-scanning confocal microscope (Zeiss LSM 880). SNARF-1 was excited at 514 nm, and emissions at 580 nm and 640 nm were recorded. The ratio of fluorescence intensities (580/640) was obtained to calculate pH values using calibration curves constructed from colorless standard pH solutions. The microscope chamber housing epithelia maintained a humidified environment at 37° C. 5% CO2 was added to the chamber environment whenever the basolateral side was immersed in a HCO3^− containing buffer solution, but removed when a HCO3^−-free (HEPES) buffer solution was used.

NKCC1 [6] = assay: Ussing chamber, bumetanide-sensitive ISC in CF epithelia; assay type: cell-based, human; details: WNK463 10 μM, 2 hours, amiloride, UTP, then basolateral bumetanide
Protocol: as §2, §3

S. aureus = S. aureus killing assay (ASL antimicrobial activity, bacteria-coated grids); assay type: cell-based; details: primary CF epithelia; WNK463 10 μM, 2 hours
Protocol: S. aureus killing assay. ASL antimicrobial activity was assessed using bacteria-coated grids. Preparation, imaging, and quantification were performed as previously described (13). Briefly, S. aureus isolate SA-CL37 was grown to log-phase, labeled with biotin, and conjugated to streptavidin-coated gold electron microscopy grids. The grids were placed on the apical side of airway epithelia in direct contact with ASL. After incubating for 15 minutes in humidified, 5% CO2 chambers at 37° C., the grids were retrieved, rinsed with PBS, and immersed in SYTO9 and propidium iodide to determine bacterial viability (Live/Dead Bacterial Viability Assay, Invitrogen). The grids were washed, fixed with 4% paraformaldehyde, and imaged on the Olympus Fluoview FV 3000 confocal microscope. Images were analyzed for numbers of live and dead bacteria using the ImageJ software. For each grid, three separate regions were imaged. Two grids were assessed per epithelium and the results averaged to obtain % S. aureus killing.

primary CF epithelia [7] = assay: Liquid absorption assay; assay type: cell-based, human; details: WNK463 10 μM, 4 hours
Protocol: Liquid absorption assay. Liquid absorption was measured using a previously reported method (40). Briefly, airway epithelia were transferred to 500 μl of fresh basolateral solution containing either vehicle or 10 μM WNK463. The apical side was suctioned dry and 30 μl of Krebs buffer solution was introduced. Of note, the apical solution had the same ionic composition, osmolality, and pH as the basolateral solution. After 4 hours, the apical liquid was collected with micropipettes (Drummond Microcaps #1-000-1000) and the height of the liquid column was recorded. Volume of liquid was calculated as the product of height and micropipette cross-sectional area. The difference between the original and 4-hour liquid volumes was used to calculate the rate of absorption (μl·cm^−2·h^−1).

[8] = system: TNFα/IL-17-treated CF epithelia; assay: pHASL measurement in TNFα/IL-17-treated CF epithelia; assay type: cell-based, human; details: CF epithelia treated with TNFα 10 ng/ml and IL-17 20 ng/ml for 48 hours, 2 hours
Protocol: To assess cytokine-induced responses, epithelia were treated with a combination of 10 ng/ml TNFα (R&D Systems) and 20 ng/ml IL-17 (R&D Systems). Both cytokines were added to the basolateral media for 48 hours prior to assessments. All studies were approved by the University of Iowa Institutional Review Board.
as §4

[9] = rat model of hypertension; cited from earlier work
airway epithelia = details: previous studies in airway epithelia; cited from earlier work
[10] = 2 hours, symmetric Krebs solution with Cl− and HCO3−

For `CC(C)(C)NC(=O)c1cncn1C1CCN(c2ccc(-c3nnc(C(F)(F)F)o3)cn2)CC1` [WNK463], which pHASL [1] is on record?
The pHASL was “increased”.

What about the “ASL viscosity (τASL/τsaline)” value (primary CF epithelia [2]) of the same compound?
The value was “decreased”.

And the ciliary beat frequency (primary CF epithelia [3])?
The ciliary beat frequency was “increased”.

What about the “bumetanide-sensitive ISC” value (NKCC1 [4]) of the same compound?
The value was “reduced”.

And the “DIDS-sensitive ΔGt” value (CaCC)?
The value was “slightly increased”.

And the “DIDS-sensitive ΔISC” value (CaCC)?
Its value is “decreased”.

What about the ΔISC-CFTR (CFTR; Cl−-free solution) of the same compound?
Its ΔISC-CFTR is “remained unchanged”.

And the “reduction of ΔISC-CFTR” value (CFTR; [10])?
Its value is about 50%.

And the ΔGt-CFTR (CFTR; [10])?
The ΔGt-CFTR was “remained unchanged”.

What about the ΔISC-CFTR (CFTR; symmetric HCO3−-free solution) of the same compound?
The ΔISC-CFTR was “reduced”.

And the pHASL ([5]; CF epithelia, WNK463 10 μM, 2 hours, in the absence of basolateral Cl−)?
Its pHASL is “failed to alkalinize”.

And the pHASL ([5]; primary CF epithelia, WNK463 10 μM, 2 hours, 25 mM HCO3− and 5% CO2)?
Its pHASL is “increased”.

What about the “pHASL, time course” value ([5]; primary CF epithelia, continued exposure up to 24 hours versus 2 hours) of the same compound?
Its value is “did not further alkalinize”.

And the pHASL response ([5]; primary CF epithelia, nominally HCO3−/CO2-free environment (HEPES), WNK463 10 μM)?
Its pHASL response is “disappeared”.

What about the “bumetanide-sensitive ISC” value (NKCC1 [6]) of the same compound?
The value was “reduced”.

What about the “ASL-mediated S. aureus killing” value (S. aureus) of the same compound?
The value was “increased”.

And the “rate of apical liquid absorption” value (primary CF epithelia [7])?
The value was “did not alter”.

And the pHASL ([8]; WNK463 10 μM)?
Its pHASL is “further increased”.

What about the adverse effects [9] of the same compound?
The adverse effects was “adverse effects”.

For `CCCCNc1cc(C(=O)O)cc(S(N)(=O)=O)c1Oc1ccccc1` [bumetanide], which pHASL ([5]; CF epithelia, 2 hours after exposure to basolateral bumetanide) is on record?
The pHASL was “increased”.

And the “intracellular [Cl−]” value (airway epithelia)?
The value was “decreases”.

And the pHASL ([8]; bumetanide 100 μM)?
Its pHASL is “further alkalinized”.

Which pHASL ([5]; primary CF epithelia, rafoxanide applied for 2 hours) does the source give for `O=C(Nc1ccc(Oc2ccc(Cl)cc2)c(Cl)c1)c1cc(I)cc(I)c1O` [rafoxanide, Rafoxanide] here?
The pHASL was “increased”.
